Experimental data reported in patent publication EP0409176B1, “Method and materials for detecting pathology from alterations in estrogen metabolism” (THE ROCKEFELLER UNIVERSITY, priority 1989, dated 1991).

How the values were obtained:
2OHE1 antiserum = assay: Radioimmunoassay cross-reactivity of the anti-2OHE1 antiserum; assay type: binding; conditions: antiserum raised against bovine serum albumin linked to 2-hydroxyestrone 17-carboxymethyloxime
Source text: Antibodies to 16α-OHE1, E2 and E3 were raised as described previously (Fishman, J., et al., SCIENCE, 204:1089-1091 (1979); Ikegawa, S., et al., J. STEROID BIOCHEM., 18:329-332 (1983)), while the anti-2OHE1 antiserum was a gift of Dr. Kanbegawa (Teikyo University, Japan) and was raised against bovine serum albumin linked to 2-hydroxyestrone 17-carboxymethyloxime. Cross-reactivities of the 2OHE1 antiserum with E1, E2 and E3, 16αOHE1, 2MeOE1, and 2-hydroxyestradiol (2OHE2) were 1.3%, 0.6%, 0.01%, 0.03%, 0.11% and 1.7%, respectively.
Each urine sample (1 or 2 mL) contained approximately 3000 dpm of […] steroid used to determine recovery, and was applied to a C18 Sep-pak cartridge followed by elution with 5 mL of methanol. The eluate was dried in vacuo and hydrolyzed with Glusulase for 12 h at 37°C. The hydrolyzed steroids were again extracted on a C18 Sep-pak cartridge and eluted with 5 mL of methanol. Aliquots of this final eluate were taken for determination of recovery (averaging 90-95%) and duplicate radioimmunoassay (100 µL). In order to prevent auto-oxidation of catecholestrogens, ascorbic acid (1%) was used in all stages of the assay. Radiolabeled steroids and antisera were incubated with the specimens overnight at 4°C, and radioactivity was measured with a Packard model 3000 scintillation counter. Estrogen levels are expressed relative to urinary creatinine concentration. Statistical analysis was performed with an unpaired t-test. Unless otherwise specified, all values are reported as means ± SEM.

[1] = tested on: estradiol 2-hydroxylation; assay: Urinary estrogen metabolites and ratios before and after I3C or high fiber diet; assay type: in vivo, humans
Protocol: (§1) In this study by two of the inventors herein, which study was just recently published, certain dietary indoles were examined for their induction of hepatic estradiol 2-hydroxylation. In particular, indole-3-carbinol (I3C) was administered to humans at a rate of 500 mg daily for one week.
In conjunction with this study, certain comparative data were developed between the administration of I3C to women and men, and the administration of a high fiber diet to women. The comparative results are presented in Table 6A, B and C below, wherein Table 6A represents the data from women taking I3C, Table 6B represents the data respecting the women who were placed on a high fiber diet, and Table 6C represents the data gathered from the sample of men who were administered I3C.

[2] = tested on: hepatic estradiol 2-hydroxylation; assay: Extent of estradiol 2-hydroxylation after indole-3-carbinol administration; assay type: in vivo; conditions: 500 mg daily for one week, humans
Protocol: as §1

[3] = tested on: estradiol hydroxylation at both the C-2 and C-16α sites; conditions: cited from earlier work
[4] = tested on: cytochrome P-450-dependent metabolism of estradiol; conditions: 800 mg per dose twice daily oral for two weeks; nine normal male volunteers; P<0.04; cited from earlier work
[5] = tested on: cytochrome P-450-dependent metabolism of estradiol; conditions: cited from earlier work
[6] = tested on: 16α-hydroxylation of estradiol; conditions: 800 mg per dose twice daily oral for two weeks; nine normal male volunteers; radiometric analysis; cited from earlier work
[7] = after thyroxine administration versus baseline

In the case of `C[C@]12CC[C@@H]3c4ccc(O)cc4CC[C@H]3[C@@H]1C[C@@H](O)C2=O` [16αOHE1, 16α-hydroxyestrone], the “Cross-reactivities of the 2OHE1 antiserum” value (from here on “Cross-reactivities”) (2OHE1 antiserum) is reported as 0.03%.

In the case of `C[C@]12CC[C@@H]3c4cc(O)c(O)cc4CC[C@H]3[C@@H]1CC[C@@H]2O` [2-hydroxyestradiol], the “Cross-reactivities” value (2OHE1 antiserum) is reported as 1.7%.

With `OCc1c[nH]c2ccccc12` [I3C, indole-3-carbinol] the “[2OHE1]/[E3]” value ([1]; Men Taking I3C (N=7), Post, Pre 1.06 ± 0.11, P <0.02) was 2.04 ± 0.35, the “[E3]” value ([1]; Men Taking I3C (N=7), Post, Pre 6.4 ± 1.8, P <0.006) was 4.2 ± 1.3 and the “[2OHE1]” value ([1]; Men Taking I3C (N=7), Post, Pre 6.6 ± 2.3, NS) was 8.2 ± 3.5. For the same molecule, the “[E1]” value ([1]; Men Taking I3C (N=7), Post, Pre 8.4 ± 1.8, NS) was 8.9 ± 2.3, the “[E3]/[E1]” value ([1]; Women (N=5), Post, Pre 1.04 ± 0.20, NS) was 0.74 ± 0.11 and the “[2OHE1]/[E1]” value ([1]; Women (N=5), Post, Pre 1.15 ± 0.24, P <0.05) was 1.53 ± 0.20. The “[2OHE1]/[E3]” value ([1]; Women (N=5), Post, Pre 1.27 ± 0.30, P <0.005) was 2.35 ± 0.50, the “induction of estradiol 2-hydroxylation” value ([1]; conclusion from Tables 6A-C) was “potent inducers” and the “extent of estradiol 2-hydroxylation” value [2] was “significantly increased”.

In the case of `C[C@]12CC[C@@H]3c4ccc(O)cc4CC[C@H]3[C@@H]1C[C@@H](O)[C@@H]2O` [E3, estriol], the “Cross-reactivities” value (2OHE1 antiserum) is reported as 0.01%.

For `COc1cc2c(cc1O)CC[C@@H]1[C@@H]2CC[C@]2(C)C(=O)CC[C@@H]12` [2MeOE1, 2-methoxyestrone], the “Cross-reactivities” value (2OHE1 antiserum) was 0.11%.

For `N[C@@H](Cc1cc(I)c(Oc2cc(I)c(O)c(I)c2)c(I)c1)C(=O)O` [Thyroxine, thyroxine], the “Urinary 16αOHE1” value ([3]; Post: following two weeks of thyroxine (4.3 mcg/kg/d), mean ± SEM, Pre 2.07 ± 0.24, NS) is listed as 2.24 ± 0.17 µg creatinine, the “Urinary E2” value ([3]; Post: following two weeks of thyroxine (4.3 mcg/kg/d), mean ± SEM, Pre 2.78 ± 0.23, NS) is listed as 3.03 ± 0.27 µg creatinine and the “Urinary 2OHE1” value ([3]; Post: following two weeks of thyroxine (4.3 mcg/kg/d), mean ± SEM, Pre 2.88 ± 0.32, P 0.01) is listed as 5.30 ± 0.85 µg creatinine. For the same molecule, the “Urinary E3” value ([3]; Post: following two weeks of thyroxine (4.3 mcg/kg/d), mean ± SEM, Pre 5.84 ± 0.88, NS) was 5.37 ± 0.78 µg creatinine, the “Urinary E1” value ([3]; Post: following two weeks of thyroxine (4.3 mcg/kg/d), mean ± SEM, Pre 7.36 ± 0.39, NS) was 7.30 ± 0.74 µg creatinine and the “Urinary Total estrogens” value ([3]; Post: following two weeks of thyroxine (4.3 mcg/kg/d), mean ± SEM, Pre 20.93 ± 1.58, NS) was 23.24 ± 2.41. µg creatinine. The “index [2OHE1]/[E3] change after thyroxine administration” value [3, 7] was “nearly doubled”, the “urinary 2-hydroxyestrone after thyroxine administration” value [3, 7] was “significantly greater” and the “[2OHE1]/[E3]” value ([3]; urinary ratio, Post: following two weeks of thyroxine (4.3 mcg/kg/d), Pre 0.56 ± 0.09, P 0.01) was 1.05 ± 0.14.

For `CN/C(=N/CCSCc1nc[nH]c1C)NC#N` [Cimetidine], the “serum concentration of estradiol increased” value [4] is listed as “approximately 20%”, the “urinary excretion of 2-hydroxyestrone decreased” value ([5]; 800 mg per dose twice daily oral for two weeks, nine normal male volunteers, P<0.0002) is listed as “approximately 25%” and the “Urinary Excretion of Total estrogens” value ([5]; After Cimetidine 800 mg orally twice a day for 14 days, sum of estrone, estradiol, estriol, 16α-hydroxyestrone, 2-hydroxyestrone, n=9, before 10.7 ± 1.1, P 0.02) is listed as 9.9 ± 0.9 nmol/nmol of creatinine. The “Urinary Excretion of 16α-Hydroxyestrone” value ([5]; After Cimetidine 800 mg orally twice a day for 14 days, timed overnight urine, mean ± SEM, n=9, before 1.08 ± 0.11, NS) was 1.05 ± 0.08 nmol/nmol of creatinine, the “Urinary Excretion of Estradiol” value ([5]; After Cimetidine 800 mg orally twice a day for 14 days, timed overnight urine, mean ± SEM, n=9, before 1.28 ± 0.15, NS) was 1.25 ± 0.10 nmol/nmol of creatinine and the “Urinary Excretion of 2-Hydroxyestrone” value ([5]; After Cimetidine 800 mg orally twice a day for 14 days, timed overnight urine, mean ± SEM, n=9, before 1.71 ± 0.20, P 0.0002) was 1.27 ± 0.19 nmol/nmol of creatinine. For the same molecule, the “Urinary Excretion of Estrone” value ([5]; After Cimetidine 800 mg orally twice a day for 14 days, timed overnight urine, mean ± SEM, n=9, before 3.80 ± 0.34, P 0.03) was 3.32 ± 0.26 nmol/nmol of creatinine, the “ratio of 2-hydroxyestrone to estriol reduced” value ([5]; after Cimetidine treatment) was “approximately 40%” and the 2-Hydroxyestrone/estriol ([5]; urinary ratio After Cimetidine 800 mg orally twice a day for 14 days, mean ± SEM, n=9, before 0.74 ± 0.18, P 0.015) was 0.47 ± 0.10. For the same molecule, the 16α-hydroxylation of estradiol [6] was “unaffected”.
